Data on 5 molecules can be found in patent publication US4064254A, “Substituted piperidines therapeutic process and compositions” (Mead Johnson & Company, priority 1976, dated 1977).

In experiment [1] the test system is rabbit atrium. The experiment is described as follows: in vitro rabbit atrium test (refractory period). The format is cell-based. As to conditions: Oryctolagus cuniculus; rabbit left atrium, 30° C., stimulated at 30 per minute; read-out: EC50 (50% of maximal increase in refractory period). Here is the method:
In this test, the left atrium is placed in Chenoweth's solution warmed to 30° C. and irrigated with 95% oxygen: 5% carbon dioxide. The lower end of the atrium is attached to a small hook fixed in the bath and the upper end is connected to a transducer to record contractile activity. […] A test compound is introduced into the bath and the test repeated after a 5 minute interval. A dose-response relationship is obtained by additional doses of the test compound. […] This value is designated the EC50.

The test system of experiment [2] is serotonin (rat uterus). The experiment is described as follows: antiserotonin activity in the rat uterus (spasmogenic effect of serotonin). The format is cell-based. The settings on record: rat uterine horn, 30° C., 0.4 microgram per milliliter of serotonin; read-out: IC50 (decrease of spasmogenic effect of serotonin by 50%). Here is the method:
According to this test one of the uterine horns of a rat uterus is suspended in oxygenated salt solution at 30° C. The contractions of this tissue are then recorded and varying concentrations of the test compound introduced into the bath in order to determine the concentration that would decrease the spasmogenic effect of 0.4 microgram per milliliter of serotonin by 50%. This value is designated the IC50.

For experiment [3], the system named is aconitine induced arrhythmia in the dog. The experiment is described as follows: prevention of aconitine induced arrhythmia in the dog, intraduodenal administration. In kind it is in vivo. The settings on record: Canis lupus familiaris, read-out: effective dose in the prevention of aconitine induced arrhythmia. An excerpt:
(§1) The chest of an anesthetized dog is opened in the midline and the right and left atrial appendages exposed through small slits in the pericardium. Bypolar recording electrodes are affixed to the atrial surfaces and a 4 × 4 mm. piece of clean cloth is fixed to the surface of the right auricular appendage. Control recordings are made of various heart functions including femoral arterial blood pressure and right and left atrial electrograms. Atrial arrhythmia is then induced by placing 3-5 drops of a solution of aconitine on the cloth which is fixed to the right atrium. […] Throughout the experiment, fresh aconitine is (2-3 drops) placed on the cloth at 10 minute intervals.

Experiment [4] deals with chloroform induced arrhythmia in the mouse. The experiment in a line: inhibition of chloroform induced arrhythmia in the mouse (Lawson). The settings on record: ip, intraperitoneal, read-out: ED50, prevention of chloroform induced arrhythmia. In kind it is in vivo. An excerpt: Another in vivo test involves the inhibition of chloroform induced arrhythmia in the mouse according to the method of J. W. Lawson, J. Pharmacol. Exp. Therap., 160, 22 (1968).

The test system of experiment [5] is electrically induced arrhythmia in the dog. The experiment is described as follows: electrically induced arrhythmia in the dog. In kind it is in vivo. The settings on record: Canis lupus familiaris, iv.
In experiment [6] the test system is aconitine induced arrhythmia in the dog. The experiment in a line: aconitine induced atrial arrhythmia in the anesthetized dog, intravenous. The settings on record: Canis lupus familiaris, read-out: effective dose restoring normal cardiac rhythm, aconitine induced arrhythmia. The format is in vivo.
Text: as §1

The test system of experiment [7] is serotonin in the brain in mice. The experiment is described as follows: antiserotonin activity in mice, 5-hydroxytryptophan / monoamine oxidase inhibitor (Corne). The format is in vivo. As to conditions: Mus musculus. The source says:
This test is dependent on the metabolism of 5-hydroxytryptophan to serotonin in the brain in mice which are pretreated with a monamine oxidase inhibitor.

≈ marks a conversion by molar mass, not a printed value. Where only a bound is given, the exact number is not on record here.

The term EC50 denotes the concentration giving half of the maximal effect. `CN1CCCCC1CCc1ccccc1N` (centres unmarked) [2-(o-Aminophenethyl)-1-methylpiperidine, 2-(O-Aminophenethyl)-1-methylpiperidine]: the half-maximal effective concentration (EC50) in experiment [1] is 44 µg/mL (≈ 202 µM).

As usually defined, the IC50 is the concentration needed to halve the response being measured. As to `CCN(CC)C(=O)[C@@H]1C=C2c3cccc4[nH]cc(c34)C[C@H]2N(C)C1` [lysergide, reference compound], the concentration for half-maximal inhibition (IC50) in experiment [2] worked out at 0.012 µg/mL (≈ 0.0371 µM).

What is called ED50 is the dose at which the effect has come halfway, by size or by number of responders. Consider `C=C[C@H]1C[N@@]2CC[C@H]1C[C@@H]2[C@@H](O)c1ccnc2ccc(OC)cc12` [quinidine, reference compound], for which the minimal effective dose in experiment [3] is greater than 14 mg/kg; in experiment [5], 14 mg/kg; in experiment [6] it was 6 mg/kg. For the same molecule, the ED50 in experiment [4] was found to be 83 mg/kg. The EC50 in experiment [1] came to 18 µg/mL (≈ 55.5 µM).

For `CN1CCCCC1CCc1ccccc1NC(=O)C=Cc1ccccc1` (centres unmarked) [2'-[2-(1-Methyl-2-piperidyl)ethyl]-cinnamanilide], the median effective dose (ED50) worked out at 21 mg/kg in experiment [7] (ip, 1 h, intraperitoneal, 60 minute pretreatment); 4.3 mg/kg in experiment [7] (sc, 0.5 h, subcutaneous, 30 minute pretreatment); 10 mg/kg in experiment [7] (sc, 1 h, subcutaneous, 60 minute pretreatment). Also, the IC50 in experiment [2] was 0.00185 µg/mL (≈ 0.00531 µM).

With `COc1ccc(C(=O)Nc2ccccc2CCC2CCCCN2C)cc1` (centres unmarked) [4-methoxy-2'-[2-(1-methyl-2-piperidyl)ethyl]benzanilide], the results for the minimal effective dose in experiment [3], in experiment [5] and in experiment [6] were less than 10 mg/kg, 1.9 mg/kg and 0.8 mg/kg, respectively. In experiment [4], the 50% effective dose (ED50) worked out at 7.1 mg/kg. Besides, the half-maximal inhibitory concentration (IC50) in experiment [2] came to 0.0046 µg/mL (≈ 0.0131 µM). Also, in experiment [1], the concentration for a half-maximal effect (EC50) stood at 2.4 µg/mL (≈ 6.81 µM).
